# Assay results as given in ChEMBL document CHEMBL3885881, “DrugMatrix”.
# Species: Rattus norvegicus
# Test: DrugMatrix - Regimen: Daily Repeat
# Format: toxicity, organism-based, Sprague-Dawley
# Set-up: regimen Daily Repeat, gender Male, age 6-8 weeks
# Conditions: in vivo, po, route oral GAVAGE, vehicle .5 % CMC; for ABSOLUTE BASOPHIL / ABSOLUTE EOSINOPHIL / ABSOLUTE LYMPHOCYTE / ABSOLUTE MONOCYTE / ABSOLUTE SEGMENTED NEUTROPHIL / BASOPHIL / EOSINOPHIL / ERYTHROCYTE COUNT / HEMATOCRIT / HEMOGLOBIN / LEUKOCYTE COUNT / LYMPHOCYTE / MEAN CORPUSCULAR HEMOGLOBIN / MEAN CORPUSCULAR HEMOGLOBIN CONCENTRATION / MEAN CORPUSCULAR VOLUME / MONOCYTE / NEUTROPHIL / NUCLEATED RED BLOOD CELLS / PLATELET COUNT: tissue Blood; for ALANINE AMINOTRANSFERASE / ALBUMIN / ALKALINE PHOSPHATASE / ASPARTATE AMINOTRANSFERASE / BLOOD UREA NITROGEN / CARBON DIOXIDE / CHLORIDE / CHOLESTEROL / CREATINE PHOSPHOKINASE / CREATININE / GLUCOSE / LACTATE DEHYDROGENASE / LIPASE / PHOSPHORUS / POTASSIUM / SODIUM / TOTAL BILIRUBIN / TOTAL PROTEIN / URIC ACID: tissue Plasma
# [1] = 0 mg/kg, 72 h, dose level Control, time 3 day
# [2] = 0 mg/kg, 120 h, dose level Control, time 5 day
# [3] = 0.1 mg/kg, 72 h, dose level Low, time 3 day
smiles,measurement,setting,value
CCCN1C[C@H](CSC)C[C@@H]2c3cccc4[nH]cc(c34)C[C@H]21 [PERGOLIDE],ABSOLUTE BASOPHIL,[1],0 CELLS/uL
same,ABSOLUTE EOSINOPHIL,[1],284.5 CELLS/uL
same,ABSOLUTE LYMPHOCYTE,[1],11670.5 CELLS/uL
same,ABSOLUTE MONOCYTE,[1],420.83 CELLS/uL
same,ABSOLUTE SEGMENTED NEUTROPHIL,[1],1024.17 CELLS/uL
same,BASOPHIL,[1],0%
same,EOSINOPHIL,[1],1.67%
same,ERYTHROCYTE COUNT,[1],5.38 x10E6/uL
same,HEMATOCRIT,[1],34.05%
same,HEMOGLOBIN,[1],12.75 G/DL
same,LEUKOCYTE COUNT,[1],13.4 x10E3/uL
same,LYMPHOCYTE,[1],88.33%
same,MEAN CORPUSCULAR HEMOGLOBIN,[1],23.73 pg
same,MEAN CORPUSCULAR HEMOGLOBIN CONCENTRATION,[1],37.43 G/DL
same,MEAN CORPUSCULAR VOLUME,[1],63.4 fL
same,MONOCYTE,[1],2.83%
same,NEUTROPHIL,[1],7.17%
same,NUCLEATED RED BLOOD CELLS,[1],0 /100WBC
same,PLATELET COUNT,[1],1184.67 x10E3/uL
same,ALANINE AMINOTRANSFERASE,[1],45.33 u/L
same,ALBUMIN,[1],4.3 G/DL
same,ALKALINE PHOSPHATASE,[1],388.83 u/L
same,ASPARTATE AMINOTRANSFERASE,[1],84.83 u/L
same,BLOOD UREA NITROGEN,[1],15.5 mg/dL
same,CARBON DIOXIDE,[1],27 mmol/L
same,CHLORIDE,[1],101.8 MEQ/L
same,CHOLESTEROL,[1],76.67 mg/dL
same,CREATINE PHOSPHOKINASE,[1],301 u/L
same,CREATININE,[1],0.21 mg/dL
same,GLUCOSE,[1],168.83 mg/dL
same,LACTATE DEHYDROGENASE,[1],294.83 u/L
same,LIPASE,[1],9.8 u/L
same,PHOSPHORUS,[1],13.25 mg/dL
same,POTASSIUM,[1],6.41 MEQ/L
same,SODIUM,[1],143.72 MEQ/L
same,TOTAL BILIRUBIN,[1],0.22 mg/dL
same,TOTAL PROTEIN,[1],5.98 G/DL
same,URIC ACID,[1],1.5 mg/dL
same,ABSOLUTE BASOPHIL,[2],0 CELLS/uL
same,ABSOLUTE EOSINOPHIL,[2],190.67 CELLS/uL
same,ABSOLUTE LYMPHOCYTE,[2],12549.5 CELLS/uL
same,ABSOLUTE MONOCYTE,[2],276 CELLS/uL
same,ABSOLUTE SEGMENTED NEUTROPHIL,[2],1067.17 CELLS/uL
same,BASOPHIL,[2],0%
same,EOSINOPHIL,[2],1.33%
same,ERYTHROCYTE COUNT,[2],5.66 x10E6/uL
same,HEMATOCRIT,[2],35.92%
same,HEMOGLOBIN,[2],13.65 G/DL
same,LEUKOCYTE COUNT,[2],14.08 x10E3/uL
same,LYMPHOCYTE,[2],89%
same,MEAN CORPUSCULAR HEMOGLOBIN,[2],24.12 pg
same,MEAN CORPUSCULAR HEMOGLOBIN CONCENTRATION,[2],38.03 G/DL
same,MEAN CORPUSCULAR VOLUME,[2],63.47 fL
same,MONOCYTE,[2],2%
same,NEUTROPHIL,[2],7.67%
same,NUCLEATED RED BLOOD CELLS,[2],0.17 /100WBC
same,PLATELET COUNT,[2],1251.67 x10E3/uL
same,ALANINE AMINOTRANSFERASE,[2],43.33 u/L
same,ALBUMIN,[2],4.22 G/DL
same,ALKALINE PHOSPHATASE,[2],365.67 u/L
same,ASPARTATE AMINOTRANSFERASE,[2],83.67 u/L
same,BLOOD UREA NITROGEN,[2],18.17 mg/dL
same,CARBON DIOXIDE,[2],28.67 mmol/L
same,CHLORIDE,[2],103.5 MEQ/L
same,CHOLESTEROL,[2],71.5 mg/dL
same,CREATINE PHOSPHOKINASE,[2],284.5 u/L
same,CREATININE,[2],0.21 mg/dL
same,GLUCOSE,[2],161.67 mg/dL
same,LACTATE DEHYDROGENASE,[2],259.67 u/L
same,LIPASE,[2],9.5 u/L
same,PHOSPHORUS,[2],12.45 mg/dL
same,POTASSIUM,[2],6.49 MEQ/L
same,SODIUM,[2],144.25 MEQ/L
same,TOTAL BILIRUBIN,[2],0.2 mg/dL
same,TOTAL PROTEIN,[2],6.1 G/DL
same,URIC ACID,[2],1.73 mg/dL
same,ABSOLUTE BASOPHIL,[3],0 CELLS/uL
same,ABSOLUTE EOSINOPHIL,[3],0 CELLS/uL
same,ABSOLUTE LYMPHOCYTE,[3],6272.67 CELLS/uL
same,ABSOLUTE MONOCYTE,[3],109.67 CELLS/uL
same,ABSOLUTE SEGMENTED NEUTROPHIL,[3],384.33 CELLS/uL
same,BASOPHIL,[3],0%
same,EOSINOPHIL,[3],0%
same,ERYTHROCYTE COUNT,[3],5.33 x10E6/uL
same,HEMATOCRIT,[3],33.93%
same,HEMOGLOBIN,[3],12.33 G/DL
same,LEUKOCYTE COUNT,[3],6.77 x10E3/uL
same,LYMPHOCYTE,[3],92.67%
same,MEAN CORPUSCULAR HEMOGLOBIN,[3],23.1 pg
same,MEAN CORPUSCULAR HEMOGLOBIN CONCENTRATION,[3],36.37 G/DL
same,MEAN CORPUSCULAR VOLUME,[3],63.57 fL
same,MONOCYTE,[3],1.67%
same,NEUTROPHIL,[3],5.67%
same,NUCLEATED RED BLOOD CELLS,[3],0 /100WBC
same,PLATELET COUNT,[3],1337.33 x10E3/uL
same,ALANINE AMINOTRANSFERASE,[3],45.67 u/L
same,ALBUMIN,[3],4.4 G/DL
same,ALKALINE PHOSPHATASE,[3],479.67 u/L
same,ASPARTATE AMINOTRANSFERASE,[3],81.67 u/L
same,BLOOD UREA NITROGEN,[3],15.33 mg/dL
same,CARBON DIOXIDE,[3],28.67 mmol/L
same,CHLORIDE,[3],102 MEQ/L
same,CHOLESTEROL,[3],85 mg/dL
same,CREATINE PHOSPHOKINASE,[3],214.67 u/L
same,CREATININE,[3],0.21 mg/dL
same,GLUCOSE,[3],139 mg/dL
same,LACTATE DEHYDROGENASE,[3],153.33 u/L
same,LIPASE,[3],9 u/L
same,PHOSPHORUS,[3],12.77 mg/dL
same,POTASSIUM,[3],6.37 MEQ/L
same,SODIUM,[3],146.5 MEQ/L
same,TOTAL BILIRUBIN,[3],0.23 mg/dL
same,TOTAL PROTEIN,[3],6.23 G/DL
same,URIC ACID,[3],1.53 mg/dL
